Results reported in PMC12469503, “Exploring the Antimicrobial and Antiviral Properties of Cryptic Peptides from Human Fibrinogen” (International Journal of Molecular Sciences, 2025).
Values after ≈ are worked out from the molar mass of the structure shown. Where two headings read alike, the source gives them in different places. Ends that are not written are not given here.

Legend:
[1] = system: Staphylococcus aureus ATCC 6538P; details: for MBC/MIC: Table 2, Staphylococcus aureus ATCC 6538P; for MBC: ATCC 6538
[2] = system: Staphylococcus aureus ATCC 6538P; details: for MIC S. aur.: ATCC 6538
[3] = system: Staphylococcus aureus ATCC 6538P; test: microbe, parasite or virus in culture; details: ATCC6538P
[4] = system: Enterococcus faecalis ATCC 29212
[5] = system: Staphylococcus aureus ATCC 6538P; test: microbe, parasite or virus in culture; details: ATCC6538P; remark: listed apart in the source
[6] = system: Klebsiella pneumonia ATCC 700603; details: ATCC 700603
[7] = system: Acinetobacter baumanii ATCC 17878
[8] = system: Pseudomonas aeruginosa PA14
[9] = system: Escherichia coli ATCC 25922
[10] = system: Salmonella typhimurium ATCC 14028; test: MIC, broth microdilution; type: cell-based; details: Table 1; broth microdilution, Nutrient Broth 0.5×, overnight 37 °C; minimum of three independent experiments
Method: MIC values were determined on Gram-positive and Gram-negative bacteria by the broth microdilution method for antimicrobial peptides previously described [33, 89] with minor modifications.
Bacterial strains were grown in Luria-Bertani (LB) medium overnight at 37 °C and then diluted in Nutrient Broth at a final concentration of ~5 × 10^5 CFU/mL per well. Twofold serial dilutions of peptides were carried out in the test wells to obtain concentrations ranging from 50 μM to 0.05 μM. Plates were incubated overnight at 37 °C.
MIC value was defined as the lowest concentration at which growth was inhibited. Three independent experiments were performed for each MIC value.

[11] = system: Pseudomonas aeruginosa PAO1; details: PAO1
[12] = system: Salmonella enteriditis 706 RIVM
[13] = system: Pseudomonas aeruginosa RP73 (clinical isolate)
[14] = system: P. aeruginosa PAO1; details: PAO1, 16 h
Method: Plates were incubated 16 h at 37 °C. FIC index was calculated as follows: FICA + FICB, where FICA = MIC of drug A in combination/MIC of drug A alone, and FICB = MIC of drug B in combination/MIC of drug B alone.

[15] = system: Pseudomonas aeruginosa PAO1; details: for MBC: PAO1; for MBC/MIC: Table 2, Pseudomonas aeruginosa PAO1
[16] = type: physicochemical
Source text: The six peptides were produced in the recombinant form by using a previously described strategy that exploit the frog protein onconase (ONC) as a carrier to drive the peptide to inclusion bodies. The fusion proteins were expressed in Escherichia coli strain BL21DE3, using the pET22b(+) vector and named: ONC-DCless-H6-(P)FIBα-GVV27, ONC-DCless-H6-(P)FIBα-SFR22, ONC-DCless-H6-(P)FIBβ-GVV28, ONC-DCless-H6-(P)FIBβ-NWK23, ONC-DCless-H6-(P)FIBγ-GII30, ONC-DCless-H6-(P)FIBγ-TWK25 (nucleotide and amino acid sequences are reported in Supplementary Figure S1). […] Peptides were released by hydrolysis of an acidic labile “Asp-Pro” sequence leading to recombinant peptides endowed with an additional Pro residue at the N-terminus. Thus, the recombinant forms of these peptides are herein named (P)FIBα-GVV27, (P)FIBα-SFR22, (P)FIBβ-GVV28, (P)FIBβ-NWK23, (P)FIBγ-GII30, (P)FIBγ-TWK25. Hydrolysis efficiencies of 95% were estimated for all the recombinant proteins (Supplementary Figure S3). To purify the recombinant peptides from the hydrolysis mixtures, the carrier and the uncleaved fusion protein were selectively precipitated by increasing the pH to 7 exploiting the fact that ONC is insoluble at pH higher than 5, whereas most AMPs are soluble also at neutral pH. […] Therefore, purification of (P)FIBα-SFR22, (P)FIBα-GVV27, (P)FIBβ-NWK23 and (P)FIBγ-TWK25 was first performed by selective precipitation, to remove the carrier and the uncleaved fusion protein, followed by Reverse Phase High-Performance Liquid Chromatography (RP-HPLC) on a C18 column, whereas purification of (P)FIBβ-GVV28 and (P)FIBγ-GII30 was performed directly by RP-HPLC omitting the selective precipitation step. Final yields of all recombinant peptides ranged from approximately 6 to 12 mg per liter of LB culture. Peptide purity, as determined by RP-HPLC, typically varied between 95% and 99% (Supplementary Figure S4).
Peptides (P)FIBα-GVV27, (P)FIBα-SFR22, (P)FIBβ-NWK23 and (P)FIBγ-TWK25 were separated from the carrier and the uncleaved fusion proteins as previously described. The hydrolysis mixture was neutralized to pH 7–7.2 by adding 1 M NH3 and incubated for 1 h at 25 °C under nitrogen atmosphere in a water bath. […] Supernatant and insoluble fraction were analyzed by SDS-PAGE. Concentration of the peptide into the soluble fraction was determined by spectrophotometric analyses using extinction coefficients (Supplementary Table S1) calculated by the ProtParam tool. After the selective precipitation step, purification of the peptide was performed by RP-HPLC. The linear gradients used are listed in Supplementary Table S2. Purification of (P)FIBβ-GVV28 and (P)FIBγ-GII30 was performed directly by RP-HPLC, omitting the selective precipitation step. Purified peptides were lyophilized and dissolved in deionized water. Samples were stored at −80 °C under nitrogen atmosphere. Purity of peptides was evaluated by RP-HPLC on Europa Protein 300 C18 column (5 μm, 25 × 1) using the linear gradients listed in Supplementary Table S2. The identity of the peptides was confirmed by mass spectrometry.

[17] = system: HSV-1; details: Vero cells
[18] = system: HCoV-229E; details: Vero cells; for antiviral activity against HCoV-229E: co-treatment assay, from 50 μM peptide
[19] = system: P. aeruginosa PAO1 biofilm; test: Antibiofilm attachment assay, confocal microscopy; details: peptide 20 µM added with bacteria, stained after 4 h, Live/Dead BacLight, three independent experiments, t-test vs control
[20] = system: P. aeruginosa PAO1 biofilm; test: Antibiofilm detachment assay, confocal microscopy; details: peptide 20 µM on 24 h pre-formed biofilm, further 24 h, Live/Dead BacLight, three independent experiments
[21] = system: Sheep Red Blood Cells
Method: (§1) To assess the safety profile of the FIB-derived peptides, their hemolytic activity was evaluated by measuring the release of hemoglobin from sheep red blood cells after 1-h incubation with increasing peptide concentrations.
(§2) Briefly, Sheep Red Blood Cells were diluted in PBS 1× to reach a final concentration of 2%. Aliquots of diluted erythrocytes (100 μL) were added to each peptide solution (0–100 μM; 100 μL) in 96-well microtiter plates, and the mixture was incubated for 30 min under shaking (3000 rpm) at 37 °C. Following the incubation, a 3 min centrifugation at 4 °C was performed, and 50 µL of the supernatant from each sample were transferred to a 96 well plate. […] Hemolysis percentage was calculated by comparing samples to controls containing PBS (negative control) and 1% SDS (v/v) in PBS solution (positive control, inducing complete lysis). Hemolysis%=(Abs405 nm peptide−Abs405 nm negative control)/(Abs405 nm positive control−Abs405 nm negative control)×100.

[22] = system: Sheep Red Blood Cells; test: Hemolysis assay; details: read-out: IC50 (concentration required to induce 50% hemolysis), peptide 0.78–100 µM, 37 °C, absorbance 405 nm, 1% SDS positive control, triplicate
Method: as §1, §2

[23] = Table 1, control antibiotic, twofold dilutions from 64 µg/mL
[24] = Table 1, broth microdilution, Nutrient Broth 0.5×, overnight 37 °C, minimum of three independent experiments
[25] = Table 1, broth microdilution, Nutrient Broth 0.5×, ~5 × 10^5 CFU/mL, overnight 37 °C, minimum of three independent experiments
[26] = peptide 1 h before infection or 1 h after infection

Molecule | MBC/MIC [1] | MIC K. pne. [6] [µM] | MIC A. bau. [7, 24] [µM] | MIC PA14 [8, 24] [µM] | MIC S. aur. [2] [µM] | MIC E. coli [9, 25] [µM] | MIC E. fae. [4, 24] [µM] | MIC S. typ. [10] [µM] | MIC PAO1 [11] [µM] | MIC S. ent. [12] [µM] | MIC RP73 ([13]; RP73 (clinical isolate)) [µM] | MBC [1] [µM] | MBC [15] [µM] | MBC/MIC [15] | MIC A. bau. ([7]; ATCC 17878) [µM] | solubility / aggregation at pH 7 [16] | MIC PA14 ([8]; PA14) [µM] | MIC E. coli ([9]; ATCC 25922) [µM] | MIC E. fae. ([4]; ATCC 29212) [µM] | fluorescence signal of SYTO 9 (live cells), attachment assay [19] | also measured
CN[C@H](CC(C)C)C(=O)N[C@H]1C(=O)N[C@@H](CC(N)=O)C(=O)N[C@H]2C(=O)N[C@H]3C(=O)N[C@H](C(=O)N[C@H](C(=O)O)c4cc(O)cc(O)c4-c4cc3ccc4O)[C@H](O)c3ccc(c(Cl)c3)Oc3cc2cc(c3O[C@@H]2O[C@H](CO)[C@@H](O)[C@H](O)[C@H]2O[C@H]2C[C@](C)(N)[C@H](O)[C@H](C)O2)Oc2ccc(cc2Cl)[C@H]1O [Vancomycin, reference compound] | 1 | – | – | – | – | – | – | – | – | – | – | – | – | – | – | – | – | – | – | – | MIC S. aur. (antibiotics) [2, 23]: 0.5 µg/mL (≈ 0.345 µM); MBC [3]: 0.5 µg/mL (≈ 0.345 µM); MIC E. fae. (antibiotics) [4, 23]: 2 µg/mL (≈ 1.38 µM); MIC [5]: 0.5 µg/mL (≈ 0.345 µM)
GIIWATWKTRWYSMKKTTMKIIPFNRLTIG [FIBγ-GII30] | – | 12.5 | 6.25 | 6.25 | 6.25 | 6.25 | 6.25 | 6.25 | 6.25 | 12.5 | 3.12 | – | – | – | – | – | – | – | – | – | FICI of peptide/tobramycin combinations [14]: 0.5–0.53
H-PGVVWMNWKGSWYSMRKMSMKIRPFFPQQ [(P)FIBβ-GVV28] | 1 | 25 | – | – | 3.12 | – | – | 12.5 | 6.25 | – | 6.25 | 3.12 | 6.25 | 1 | 6.25 | particularly prone to aggregation and precipitation | 6.25 | 6.25 | 6.25 | significantly reduced | antiviral activity against HSV-1 in cell pre-treatment and post-infection treatment [17, 26]: appreciable antiviral activity; antiviral activity against HCoV-229E in cell pre-treatment and post-infection treatment [18, 26]: appreciable antiviral activity; antiviral activity against HCoV-229E [18]: strong antiviral activity; MIC S. ent. [12, 24]: 12.5 µM; SYTO 9 / PI signal, detachment assay [20]: significantly reducing the SYTO 9 signal
H-PSFRGADYSLRAVRMKIRPLVTQ [(P)FIBα-SFR22] | 1 | >50 | – | – | 12.5 | – | – | 25 | 12.5 | >50 | 6.25 | 12.5 | 12.5 | 1 | 25 | soluble at pH 7 | 12.5 | 25 | 6.25 | did not cause any reduction | release of hemoglobin at 100 µM [21]: limited release of hemoglobin; IC50 [22]: > 100 µM; antiviral activity against HSV-1 ([17]; co-treatment assay, from 50 μM peptide): no significant effect
H-PTWKTRWYSMKKTTMKIIPFNRLTIG [(P)FIBγ-TWK25] | 1 | 6.25 | 3.12 | 3.12 | 1.56 | 3.12 | 3.12 | 3.12 | 3.12 | – | – | 1.56 | 3.12 | 1 | – | soluble at pH 7 | – | – | – | significantly reduced | release of hemoglobin at 100 µM [21]: limited release of hemoglobin; IC50 [22]: ~100 µM; antiviral activity against HCoV-229E [18]: absence of efficacy; MIC S. ent. [12, 24]: 3.12 µM; MIC RP73 [13, 24]: 3.12 µM; SYTO 9 / PI signal, detachment assay [20]: significantly reducing the SYTO 9 signal
